| SMILES | melting point [°C] |
| --- | --- |
| CC(=O)N[C@@H]1CN(C(=O)c2nn(C)c3ccccc23)C[C@@H]1C (relative stereo) | 202 to 204 |
| CC(=O)NC[C@H]1CN(c2ccc(C(=O)c3cnc4ccc(Cl)nn34)cc2)C(=O)O1 | 194 to 196 |
| CNCCn1nc(N)c2cc3cc(OC)ccc3nc21 | 142 to 144 |
| CCON=C(CC)C1=C(OC(=O)c2ccccc2)CC(c2c(C)cc(C)cc2C)CC1=O (stereo not given) | 94 to 95.5 |
| COc1ccnc(CSc2nc3cc(OC(F)(F)C(F)F)ccc3[nH]2)c1OC | 98 to 102 |
| Cc1cc(C)c(O)c(Cc2cc(C)cc(C)c2O)c1 | 125 to 126 |
| C#CCc1c(C)nc2c(OCc3c(C)cccc3NC(=S)NC(=O)c3ccccc3)cccn12 | 159 to 160 |
| CC(C)c1ccc(OC(Cc2ccc(OCCNC(=O)c3ccc(-c4ccc(N(C)C)cn4)cc3)cc2)C(=O)O)cc1 (stereo not given) | 150 to 151 |
| OC1CSC(Oc2cc(-c3cccnc3)ccc2F)C(O)C1O (stereo not given) | 100 |
| CC(C)C1N(CC(N)=O)C(=O)CN1C(=O)CCl (stereo not given) | 163 |
| COc1ccc(-c2cnc(N3Cc4c([nH]c5ccccc5c4=O)C3c3ccc4c(c3)OCO4)nc2)cc1 (stereo not given) | 325 to 327 |
| C#CCN(C)C(=O)NC | 68 to 69 |
| CCCN(CCCCNc1ncc(CC2CCCCC2)c(=O)[nH]1)c1ccccn1 | 62 to 64 |
| Clc1cccc(Cl)c1C1CCN(Cc2[nH]c3ccccc3c2-c2ccccc2)CC1 | 162 to 164 |
| Nc1ccc(CP2(=O)OCCCO2)cc1 | 172 to 173 |
| Cc1cn(-c2cc([N+](=O)[O-])cc(C(F)(F)F)c2)cn1 | 118 to 119 |
| CC(C)(C)c1cc(SCc2ccc(-c3nnn[nH]3)cc2)cc(C(C)(C)C)c1 | 187 to 189 |
| CC(=O)C(C(=O)OC(C)(C)C)C(=O)c1ccc(C(=O)C(C(C)=O)C(=O)OC(C)(C)C)cc1 (stereo not given) | 94 to 96 |
| CCn1cc(-c2ccc([C@H](C)N3CC[C@](CC(C)(C)O)(c4ccc(F)cc4)OC3=O)cc2)ccc1=O | 172 to 174 |

| SMILES | melting point [°C] |
| --- | --- |
| CCOC(=O)C=Cc1ccc(CCc2nc(-c3ccccc3)oc2C)cc1 | 73 to 74 |
| CC1CC(C)CN(C(=O)C2Cc3ccccc3N2)C1 (stereo not given) | 131 to 133 |
| CCNc1ccc(N2CCOC2=O)cc1[N+](=O)[O-] | 140 |
| COc1cc2c(cc1OC)C(=O)NC(=O)C2 | 234 to 238 |
| O=C1C=C2CN(C(C(=O)C3CC3)c3ccccc3F)CCC2S1 (stereo not given) | 123 to 125 |
| C=CCNc1nc(NCc2ccccc2)c2scc(C)c2n1 | 97 to 98 |
| O=C(O)c1ccc(CNc2nc(-c3cccnc3)nc3ccccc23)cc1 | 285 to 294 |
| CCCc1oc2ccc([N+](=O)[O-])cc2c1C(=O)c1ccc(OC)cc1 | 73 |
| CCc1cccc(CC)c1NC(=O)NCC1(c2ccccc2)CCCCC1 | 185 to 186 |
| CN(C)CCCOc1ccccc1C=NCC(N)=O | 71 to 73 |
| Cc1ccc(C(=O)OC(C)c2nc3c(c(=O)n(C)c(=O)n3C)n2C)cn1 (stereo not given) | 165 to 180 |
| COc1cccc(OC)c1C(=O)P(CC(C)C)C(=O)c1c(OC)cccc1OC | 138 to 140 |
| O=C(Nc1ccncc1)c1ccc(OC(F)F)c2oc3ccccc3c12 | 230 |
| CCCCCCNC(=O)Oc1ccc2c(c1)CCCN2C | 50 |
| COc1ccc2c(-c3ccccc3F)noc2c1C | 105 to 108 |
| O=C(c1ccc(Nc2ccccc2[N+](=O)[O-])cc1)c1ccccc1O | 189 to 193 |
| C=CC(=O)Nc1cccc2cccnc12 | 76.5 to 78.5 |
| CCOC(=O)c1cnn(Cc2ccccc2)c1NC(=O)Nc1ccccc1 | 178 to 179 |
| COC(=O)c1ccc(Cc2c[nH]c3ccc(C=O)cc23)c(OC)c1 | 117 to 120 |

Continued, values first:

| melting point [°C] | SMILES |
| --- | --- |
| 151 to 162 | Cc1cn(C(C)C(=O)O)nc1-c1ccccc1 (stereo not given) |
| 129 to 131 | CC(CO)c1ccc2cc(OCc3ccc4ccccc4n3)ccc2c1 (stereo not given) |
| 207 to 209 | O=[N+]([O-])c1cc([N+](=O)[O-])c(Nc2c(Br)cc(Cl)c3ccccc23)c(C(F)(F)F)c1 |
| 212 | O=C(O)c1c(Br)c(Br)cc2c1OCCO2 |
| 118 to 120 | CCC(C)c1ccc(OC(C)=O)c(C2(OC(C)=O)C(=O)c3ccccc3C2=O)c1 (stereo not given) |
| 201 to 202 | FC(F)(F)c1cccc(-c2ccn3ncnc3n2)c1 |
| 95 | N#C[C@H](O)c1cccc(Oc2ccccc2)n1 |
| > 360 | Nc1cc2[nH]c(=O)oc2cc1N |
| 89 to 90 | CCOc1nn(-c2ccc(C(F)(F)F)cn2)cc1CCCOc1cc(CCC(=O)O)n(C2CCCCC2)n1 |
| 124 | CCCN1CCn2c(=O)[nH]c3cccc(c32)C1C (stereo not given) |
| 149 to 151 | COc1ccc(S(=O)(=O)Nc2c(Nc3ccccc3)ncnc2Nc2ccccc2)cc1 |
| 179 | CO[C@@H]1CNCC[C@@H]1NC(=O)c1cc(Cl)c(N)c2c1OC(C)(C)C2 (relative stereo) |
| 103 to 105 | Cc1ccc(S(=O)(=O)OCC2Cc3c(C)c(Cl)cc(C(C)C)c3O2)cc1 (stereo not given) |
| 128 to 130 | CCCCCCNC(=O)C1=C(C(=O)Nc2cc(OC3CCCC3)c(Cl)cc2F)CCCC1 |
| 125 to 127 | O=C1OC(CNC(=S)C(F)F)CN1c1ccc(N2CCOCC2)c(F)c1 (stereo not given) |
| 227 to 228 | Clc1ccc(Nc2nnc(Cc3ccncc3)c3cnccc23)cc1 |

| melting point [°C] | SMILES |
| --- | --- |
| 139 to 141 | CCc1oc(-c2ccc(C(F)(F)F)cc2)cc1CCC(=O)Nc1cccc(CSCC(=O)O)c1 |
| 240 | COc1ccccc1[C@@]1(O)[C@H](O)CC(c2ccccc2)(c2ccccc2)[C@@H]2CN(C(=O)Cc3cn(C)c4ccccc34)C[C@@H]21 (racemic) |
| 130 to 131 | CC(CCOc1cccc(=O)n1O)CC(C)(C)C (stereo not given) |
| 60 | CCOC(=O)NOC(=O)CCCCC(=O)ONC(=O)OCC |
| 200 to 206 | Cc1ccc2c(c1)-c1nn(-c3ccc(Cl)cc3)c(=O)cc1CS2 |
| 139 to 141 | OC(c1ccc(Cl)cc1)(c1ccc(Cl)cc1)c1nccn1COCc1ccccc1 |
| 200 | Cn1cnnc1C(O)(c1ccc(Cl)cc1)c1ccc2c(c1)c(CCc1cccc(Cl)c1)cc(=O)n2C (stereo not given) |
| 105 to 106 | CC(C)(C)OC(=O)N1C(=O)[C@H](O)[C@@H]1CC1CCCCC1 |
| 223 to 224 | O=C1CNC2=C(CCc3cc(F)ccc32)C1 |
| 88 to 90 | N#Cc1cccc(NC(=O)CN2CCC(Cc3ccccc3)CC2)c1 |
| 243 to 245 | COc1cc(Nc2c(C#N)cnc3cc(I)ccc23)c(Cl)cc1Cl |
| 61 to 63 | CCOC(=O)C=C1CCc2c(c(OC)c(OC)c(OC)c2OC)CC1 |
| 254 to 256 | CC(=O)Nc1ccc(F)c(-c2ccncc2)n1 |
| 95 to 98 | CCc1oc2ccccc2c1C(=O)c1ccc(OCCOS(=O)(=O)c2ccc(C)cc2)cc1 |
| 160 to 162 | CCC(C)C(CO)NC(=O)CC(O)C(CC(C)C)NC(=O)C(Cc1cccs1)NC(=O)C(Cc1cccc2ccccc12)NC(=O)OCc1ccccc1 (mixture of isomers) |
| 145 to 146 | COCn1ccnc1C(O)(c1ccc(Cl)cc1)c1ccc(Cl)cc1 |

From a melting point compilation (Tetko et al.; mined from patent text by program, amines drawn as free bases though some values may be those of a salt)
